# In patent US4731486A, “Hydroformylation using low volatile phosphine ligands” (Union Carbide Corporation, priority 1986, dated 1988):
# Structures can show the parent of a compound that is named as a salt.
# What was measured:
# [1] = Batch hydroformylation of propylene in stirred autoclave (Examples 1, 2, 11, 14, 19); conditions: 100° C., 90 psia 1:1:1 H2:CO:C3H6
# Description: A series of various rhodium complex catalyst precursor solutions consisting essentially of the solubilized reaction product of rhodium dicarbonyl acetylacetonate and various monosulfonated triphenylphosphine metal salt ligands were prepared and employed to hydroformylate propylene into C4 aldehydes in the following manner.
# Each rhodium catalytic precursor solution so prepared was then employed to hydroformylate propylene in a magnetically stirred, 100 mL capacity, stainless steel autoclave which was attached to a gas manifold for introducing gases to the desired partial pressures. The autoclave was also equipped with a pressure calibrator for determining reaction pressure to ±0.01 psia. and a platinum resistance thermometer for determining reactor solution temperatures to ±0.10° C. The reactor was heated externally by two 300 watt heating bands. The reactor solution temperature was controlled by a platinum resistance sensor connected to an external proportional temperature controller for controlling the temperature of the external band heaters.
# In each non-aqueous hydroformylation reaction, about 15 milliliters (about 14 grams) of the rhodium catalytic precursor solution so prepared was charged to the autoclave reactor under nitrogen and heated to the reaction temperature employed (as given in Table 1 below). The reactor was then vented down to 5 psig. and a premixed gas mixture of 1:1:1 carbon monoxide:hydrogen:propylene was introduced into the reactor via the gas manifold (partial pressures given in Table 1) and the propylene so hydroformylated.
# A comparison of the catalytic activity of aqueous and non-aqueous solutions of monosulfonated triphenylphosphine sodium salt ligand promoted catalysts in hydroformylating various molecular weight alphe-olefins was determined as follows.
# Both the aqueous and non-aqueous hydroformylation reactions were conducted under identical conditions with regard to temperature, rhodium and ligand concentration, hydrogen and carbon monoxide partial pressure and olefin concentration.
# [2] = Continuous single pass hydroformylation of butene-1 (Examples 3, 4, 5, 7, 12)
# Description: Continuous hydroformylation of butene-1 a monosulfonated triphenylphosphine metal salt ligand was conducted in the following manner.
# The non-aqueous hydroformylation was conducted in a glass reactor operating in a continuous single pass butene-1 hydroformylation mode. The reactor consisted of a three-ounce pressure bottle submersed in an oil bath with a lass front for viewing. About 20-mL of a freshly prepared rhodium catalytic precursor solution was charged to the reactor with a syringe, after purging the system with nitrogen. […] After closing the reactor, the system was again purged with nitrogen and the oil bath was heated to furnish the desired hydroformylation reaction temperature. The hydroformylation reaction was conducted at a total gas pressure of about 160 psig., the partial pressures of hydrogen, carbon monoxide, and butene-1 being given in Table 3 below, the remainder being nitrogen and aldehyde product.
# The flows of the feed gases (carbon monoxide, hydrogen, butene-1 and nitrogen) were controlled individually with mass flow meters and the feed gases dispersed into the precursor solution via microporous stainless steel spargers. The unreacted portion of the feed gases was stripped out with the product C5 aldehydes and the outlet gas analyzed over about 12 days of continuous operation.
# [3] = Solubility of metal salt ligands in nonanal with added solubilizing agent; assay type: physicochemical; conditions: 25° C., nonanal with 1:4 CARBOWAX TPEG-900/TERGITOL NP-9
# [4] = Texanol, 240 ppm Rhodium, about 14 mole equivalents ligand (0.9 wt. %)
# [5] = Texanol/PEG-600 20:1, day 0.9, 101 °C, CO 20, H2 59, C4H8 20 psia
# [6] = Texanol/PEG-600 20:1, day 1.7, 101 °C, CO 19, H2 55, C4H8 18 psia
# [7] = Texanol/PEG-600 20:1, day 5.0, 101 °C, CO 16, H2 47, C4H8 36 psia
# [8] = Texanol/PEG-600 20:1, day 5.9, 101 °C, CO 17, H2 51, C4H8 29 psia
# [9] = Texanol/PEG-600 20:1, day 7.0, 101 °C, CO 13, H2 43, C4H8 50 psia
# [10] = Texanol/PEG-600 20:1, day 8.0, 101 °C, CO 17, H2 41, C4H8 36 psia
# [11] = Texanol/PEG-600 20:1, day 9.0, […], CO 17, H2 36, C4H8 52 psia
# [12] = Texanol/PEG-600 20:1, day 10.0, […], CO 18, H2 30, C4H8 56 psia
# [13] = Texanol/PEG-600 20:1, day 11.8, […], CO 17, H2 29, C4H8 63 psia
# [14] = Texanol/PEG-600 20:1, day 11.9 (so in the source), […], CO 17, H2 29, C4H8 59 psia
# [15] = Texanol/PEG-600 20:1, day 12.6, 103 °C, CO 18, H2 29, C4H8 61 psia
# [16] = 200 ppm Rh, about 120 mole equivalents ligand, Texanol/Carbowax PEG-600: Li 100:0, K 9:1, Rb 8:1, Cs 7:1, Ca 20:1, Ba 7:1, Sr 18:1
# [17] = Texanol, day 0.8, 80 °C, CO 40, H2 39, C4H8 3 psia
# [18] = Texanol, day 1.9, 80 °C, CO 38, H2 41, C4H8 4 psia
# [19] = Texanol, day 2.8, 80 °C, CO 39, H2 41, C4H8 3 psia
# [20] = Texanol, day 3.9, 80 °C, CO 38, H2 42, C4H8 4 psia
# [21] = Texanol, day 5.0, 80 °C, CO 38, H2 42, C4H8 4 psia
# [22] = Texanol, day 5.8, 80 °C, CO 38, H2 42, C4H8 5 psia
# [23] = Texanol, day 6.8, 80 °C, CO 38, H2 43, C4H8 4 psia
# [24] = Texanol, day 7.8, 80 °C, CO 38, H2 44, C4H8 5 psia
# [25] = Texanol, day 9.0, 80 °C, CO 39, H2 43, C4H8 5 psia
# [26] = Texanol, day 10.0, 80 °C, CO 42, H2 38, C4H8 6 psia
# [27] = Texanol, day 10.9, 80 °C, CO 41, H2 39, C4H8 6 psia
# [28] = Texanol, day 11.0 (so in the source), 80 °C, CO 41, H2 39, C4H8 6 psia
# [29] = Texanol, day 12.9, 80 °C, CO 41, H2 39, C4H8 5 psia
smiles,measurement,setting,value
"O=S(=O)(O)c1cccc(P(c2ccccc2)C2CCCCC2)c1 (stereo not drawn) [CHDPPMS-Na, monosulfonated cyclohexyldiphenylphosphine sodium salt]",Linear/Branched Aldehyde Mole Ratio,[1]; [4],1.6
same,Reaction Rate (C4 aldehydes),[1]; [4],0.32 G moles/L/hr
"O=S(=O)(O)c1cccc(P(c2ccccc2)c2ccccc2)c1 [Ca^++, monosulfonated triphenylphosphine calcium salt]",Linear/Branched Aldehyde Mole Ratio,"[1]; 200 ppm Rh, about 120 mole equivalents ligand, Texanol/Carbowax PEG-600: Li 100:0, K 9:1, Rb 8:1, Ca 20:1, Ba 7:1, calcium salt",4.7
same,Reaction Rate (C4 aldehydes),"[1]; 200 ppm Rh, about 120 mole equivalents ligand, Texanol/Carbowax PEG-600: Li 100:0, K 9:1, Rb 8:1, Cs 7:1, Ca 20:1, Ba 7:1, Sr 18:1, calcium salt",0.51 Gmoles/L/Hr
same,Linear/Branched Aldehyde Mole Ratio,[2]; [5],12.84
same,"Rate (C5 aldehydes), daily average",[2]; [5],1.27 gmoles/L/Hr
same,Linear/Branched Aldehyde Mole Ratio,[2]; [6],14.44
same,"Rate (C5 aldehydes), daily average",[2]; [6],1.38 gmoles/L/Hr
same,Linear/Branched Aldehyde Mole Ratio,[2]; [7],13.06
same,"Rate (C5 aldehydes), daily average",[2]; [7],1.62 gmoles/L/Hr
same,Linear/Branched Aldehyde Mole Ratio,[2]; [8],17.67
same,"Rate (C5 aldehydes), daily average",[2]; [8],1.64 gmoles/L/Hr
same,Linear/Branched Aldehyde Mole Ratio,[2]; [9],20.95
same,"Rate (C5 aldehydes), daily average",[2]; [9],1.85 gmoles/L/Hr
same,Linear/Branched Aldehyde Mole Ratio,[2]; [10],18.76
same,"Rate (C5 aldehydes), daily average",[2]; [10],2.09 gmoles/L/Hr
same,Linear/Branched Aldehyde Mole Ratio,[2]; [11],18.38
same,"Rate (C5 aldehydes), daily average",[2]; [11],2.19 gmoles/L/Hr
same,Linear/Branched Aldehyde Mole Ratio,[2]; [12],20.52
same,"Rate (C5 aldehydes), daily average",[2]; [12],1.40 gmoles/L/Hr
same,Linear/Branched Aldehyde Mole Ratio,[2]; [13],18.90
same,"Rate (C5 aldehydes), daily average",[2]; [13],1.51 gmoles/L/Hr
same,Linear/Branched Aldehyde Mole Ratio,[2]; [14],21.86
same,"Rate (C5 aldehydes), daily average",[2]; [14],1.62 gmoles/L/Hr
same,Linear/Branched Aldehyde Mole Ratio,[2]; [15],28.03
same,"Rate (C5 aldehydes), daily average",[2]; [15],1.83 gmoles/L/Hr
same,Metal Salt Solubility,[3]; calcium salt,18 Wt. %
O=S(=O)(O)c1cccc(P(c2ccccc2)c2ccccc2)c1 [Cs^+],Reaction Rate (C4 aldehydes),[1]; [16],Declining Rate
same,Metal Salt Solubility,[3],> 10 Wt. %
"O=S(=O)(O)c1cccc(P(C2CCCCC2)C2CCCCC2)c1 [DCHPPMS-Na, monosulfonated dicyclohexylphenylphosphine sodium salt]",Linear/Branched Aldehyde Mole Ratio,[1]; [4],1.2
same,Reaction Rate (C4 aldehydes),[1]; [4],0.78 G moles/L/hr
same,Linear/Branched Aldehyde Mole Ratio,[2]; [17],1.86
same,"Rate (C5 aldehydes), daily average",[2]; [17],0.86 gmoles/L/Hr
same,Linear/Branched Aldehyde Mole Ratio,[2]; [18],1.88
same,"Rate (C5 aldehydes), daily average",[2]; [18],1.02 gmoles/L/Hr
same,Linear/Branched Aldehyde Mole Ratio,[2]; [19],1.99
same,"Rate (C5 aldehydes), daily average",[2]; [19],0.87 gmoles/L/Hr
same,Linear/Branched Aldehyde Mole Ratio,[2]; [20],1.84
same,"Rate (C5 aldehydes), daily average",[2]; [20],0.85 gmoles/L/Hr
same,Linear/Branched Aldehyde Mole Ratio,[2]; [21],1.83
same,"Rate (C5 aldehydes), daily average",[2]; [21],0.88 gmoles/L/Hr
same,Linear/Branched Aldehyde Mole Ratio,[2]; [22],1.79
same,"Rate (C5 aldehydes), daily average",[2]; [22],0.86 gmoles/L/Hr
same,Linear/Branched Aldehyde Mole Ratio,[2]; [23],1.95
same,"Rate (C5 aldehydes), daily average",[2]; [23],0.80 gmoles/L/Hr
same,Linear/Branched Aldehyde Mole Ratio,[2]; [24],1.78
same,"Rate (C5 aldehydes), daily average",[2]; [24],0.86 gmoles/L/Hr
same,Linear/Branched Aldehyde Mole Ratio,[2]; [25],1.75
same,"Rate (C5 aldehydes), daily average",[2]; [25],0.72 gmoles/L/Hr
same,Linear/Branched Aldehyde Mole Ratio,[2]; [26],1.79
same,"Rate (C5 aldehydes), daily average",[2]; [26],0.94 gmoles/L/Hr
same,Linear/Branched Aldehyde Mole Ratio,[2]; [27],1.89
same,"Rate (C5 aldehydes), daily average",[2]; [27],0.95 gmoles/L/Hr
same,Linear/Branched Aldehyde Mole Ratio,[2]; [28],1.92
same,"Rate (C5 aldehydes), daily average",[2]; [28],0.99 gmoles/L/Hr
same,Linear/Branched Aldehyde Mole Ratio,[2]; [29],1.77
same,"Rate (C5 aldehydes), daily average",[2]; [29],0.95 gmoles/L/Hr
O=S(=O)(O)c1cccc(P(c2ccccc2)c2ccccc2)c1 [K^+],Linear/Branched Aldehyde Mole Ratio,"[1]; 200 ppm Rh, about 120 mole equivalents ligand, Texanol/Carbowax PEG-600: Li 100:0, K 9:1, Rb 8:1, Ca 20:1, Ba 7:1",5.1
same,Reaction Rate (C4 aldehydes),[1]; [16],0.87 Gmoles/L/Hr
O=S(=O)(O)c1cccc(P(c2ccccc2)c2ccccc2)c1 [Sr^++],Reaction Rate (C4 aldehydes),[1]; [16],No Rate
